Assay results published in ChEMBL document CHEMBL1921774, “Evaluation of 18F-labeled benzodioxine piperazine-based dopamine D4 receptor ligands: lipophilicity as a determinate of nonspecific binding” (J Med Chem, 2011).

Assays:
[1] = system: Heart; assay: Biodistribution in NMRI mouse heart at 1.1 to 2.6 MBq, iv after 10 mins by gamma counting; assay type: ADME, organism-based; details: in vivo
[2] = system: Pancreas; assay: Biodistribution in NMRI mouse pancreas at 1.1 to 2.6 MBq, iv after 10 mins by gamma counting; assay type: ADME, organism-based; details: in vivo
[3] = system: Intestine; assay: Biodistribution in NMRI mouse intestine at 1.1 to 2.6 MBq, iv after 15 mins by gamma counting; assay type: ADME, organism-based; details: in vivo, 0.25 h
[4] = system: Liver; assay: Biodistribution in NMRI mouse liver at 1.1 to 2.6 MBq, iv after 5 mins by gamma counting; assay type: ADME, organism-based; details: in vivo
[5] = system: Pancreas; assay: Biodistribution in NMRI mouse pancreas at 1.1 to 2.6 MBq, iv after 30 mins by gamma counting; assay type: ADME, organism-based; details: in vivo, 0.5 h
[6] = system: Heart; assay: Biodistribution in NMRI mouse heart at 1.1 to 2.6 MBq, iv after 30 mins by gamma counting; assay type: ADME, organism-based; details: in vivo, 0.5 h
[7] = system: Spleen; assay: Biodistribution in NMRI mouse spleen at 1.1 to 2.6 MBq, iv after 5 mins by gamma counting; assay type: ADME, organism-based; details: in vivo
[8] = system: Pancreas; assay: Biodistribution in NMRI mouse pancreas at 1.1 to 2.6 MBq, iv after 5 mins by gamma counting; assay type: ADME, organism-based; details: in vivo
[9] = system: Intestine; assay: Biodistribution in NMRI mouse intestine at 1.1 to 2.6 MBq, iv after 10 mins by gamma counting; assay type: ADME, organism-based; details: in vivo
[10] = system: Intestine; assay: Biodistribution in NMRI mouse intestine at 1.1 to 2.6 MBq, iv after 5 mins by gamma counting; assay type: ADME, organism-based; details: in vivo
[11] = system: Pancreas; assay: Biodistribution in NMRI mouse pancreas at 1.1 to 2.6 MBq, iv after 15 mins by gamma counting; assay type: ADME, organism-based; details: in vivo, 0.25 h
[12] = system: Serum; assay: Metabolic stability in NMRI mouse serum assessed as remaining radioactivity at 1.1 to 2.6 MBq, iv by TLC analysis; assay type: ADME, organism-based; details: in vivo
[13] = system: Intestine; assay: Biodistribution in NMRI mouse intestine at 1.1 to 2.6 MBq, iv after 30 mins by gamma counting; assay type: ADME, organism-based; details: in vivo, 0.5 h
[14] = system: Spleen; assay: Biodistribution in NMRI mouse spleen at 1.1 to 2.6 MBq, iv after 15 mins by gamma counting; assay type: ADME, organism-based; details: in vivo, 0.25 h
[15] = system: Heart; assay: Biodistribution in NMRI mouse heart at 1.1 to 2.6 MBq, iv after 5 mins by gamma counting; assay type: ADME, organism-based; details: in vivo
[16] = system: Blood; assay: Biodistribution in NMRI mouse blood at 1.1 to 2.6 MBq, iv after 15 mins by gamma counting; assay type: ADME, organism-based; details: in vivo, 0.25 h
[17] = Chemical stability of the compound on silica gel on TLC plate assessed as half life; assay type: physicochemical
[18] = system: Liver; assay: Biodistribution in NMRI mouse liver at 1.1 to 2.6 MBq, iv after 30 mins by gamma counting; assay type: ADME, organism-based; details: in vivo, 0.5 h
[19] = system: Blood; assay: Biodistribution in NMRI mouse blood at 1.1 to 2.6 MBq, iv after 30 mins by gamma counting; assay type: ADME, organism-based; details: in vivo, 0.5 h
[20] = system: Blood; assay: Biodistribution in NMRI mouse blood at 1.1 to 2.6 MBq, iv after 10 mins by gamma counting; assay type: ADME, organism-based; details: in vivo
[21] = system: Bone; assay: Biodistribution in NMRI mouse bone at 1.1 to 2.6 MBq, iv after 15 mins by gamma counting; assay type: ADME, organism-based, Bone element; details: in vivo, 0.25 h
[22] = system: Lung; assay: Biodistribution in NMRI mouse lung at 1.1 to 2.6 MBq, iv after 15 mins by gamma counting; assay type: ADME, organism-based; details: in vivo, 0.25 h
[23] = system: Kidney; assay: Biodistribution in NMRI mouse kidney at 1.1 to 2.6 MBq, iv after 10 mins by gamma counting; assay type: ADME, organism-based; details: in vivo
[24] = system: Brain; assay: Drug metabolism in NMRI mouse brain at […], iv measured 10 mins post injection; assay type: ADME, organism-based; details: in vivo
[25] = system: Bone; assay: Biodistribution in NMRI mouse bone at 1.1 to 2.6 MBq, iv after 5 mins by gamma counting; assay type: ADME, organism-based, Bone element; details: in vivo
[26] = system: Spleen; assay: Biodistribution in NMRI mouse spleen at 1.1 to 2.6 MBq, iv after 10 mins by gamma counting; assay type: ADME, organism-based; details: in vivo
[27] = system: Brain; assay: Biodistribution in NMRI mouse brain at 1.1 to 2.6 MBq, iv after 10 mins by gamma counting; assay type: ADME, organism-based; details: in vivo
[28] = system: Lung; assay: Biodistribution in NMRI mouse lung at 1.1 to 2.6 MBq, iv after 5 mins by gamma counting; assay type: ADME, organism-based; details: in vivo
[29] = system: Lung; assay: Biodistribution in NMRI mouse lung at 1.1 to 2.6 MBq, iv after 30 mins by gamma counting; assay type: ADME, organism-based; details: in vivo, 0.5 h
[30] = system: Kidney; assay: Biodistribution in NMRI mouse kidney at 1.1 to 2.6 MBq, iv after 5 mins by gamma counting; assay type: ADME, organism-based; details: in vivo
[31] = Chemical stability of the compound on […] oxide gel on TLC plate assessed as half life; assay type: physicochemical
[32] = system: Liver; assay: Biodistribution in NMRI mouse liver at 1.1 to 2.6 MBq, iv after 10 mins by gamma counting; assay type: ADME, organism-based; details: in vivo
[33] = system: Blood; assay: Biodistribution in NMRI mouse blood at 1.1 to 2.6 MBq, iv after 5 mins by gamma counting; assay type: ADME, organism-based; details: in vivo
[34] = system: Lung; assay: Biodistribution in NMRI mouse lung at 1.1 to 2.6 MBq, iv after 10 mins by gamma counting; assay type: ADME, organism-based; details: in vivo
[35] = system: Heart; assay: Biodistribution in NMRI mouse heart at 1.1 to 2.6 MBq, iv after 15 mins by gamma counting; assay type: ADME, organism-based; details: in vivo, 0.25 h
[36] = system: Brain; assay: Biodistribution in NMRI mouse brain at 1.1 to 2.6 MBq, iv after 5 mins by gamma counting; assay type: ADME, organism-based; details: in vivo
[37] = system: Liver; assay: Biodistribution in NMRI mouse liver at 1.1 to 2.6 MBq, iv after 15 mins by gamma counting; assay type: ADME, organism-based; details: in vivo, 0.25 h
[38] = system: Brain; assay: Biodistribution in NMRI mouse brain at 1.1 to 2.6 MBq, iv after 15 mins by gamma counting; assay type: ADME, organism-based; details: in vivo, 0.25 h
[39] = system: Bone; assay: Biodistribution in NMRI mouse bone at 1.1 to 2.6 MBq, iv after 10 mins by gamma counting; assay type: ADME, organism-based, Bone element; details: in vivo
[40] = system: Brain; assay: Biodistribution in NMRI mouse brain at 1.1 to 2.6 MBq, iv after 30 mins by gamma counting; assay type: ADME, organism-based; details: in vivo, 0.5 h
[41] = system: Spleen; assay: Biodistribution in NMRI mouse spleen at 1.1 to 2.6 MBq, iv after 30 mins by gamma counting; assay type: ADME, organism-based; details: in vivo, 0.5 h
[42] = system: Kidney; assay: Biodistribution in NMRI mouse kidney at 1.1 to 2.6 MBq, iv after 15 mins by gamma counting; assay type: ADME, organism-based; details: in vivo, 0.25 h
[43] = system: Kidney; assay: Biodistribution in NMRI mouse kidney at 1.1 to 2.6 MBq, iv after 30 mins by gamma counting; assay type: ADME, organism-based; details: in vivo, 0.5 h
[44] = system: Bone; assay: Biodistribution in NMRI mouse bone at 1.1 to 2.6 MBq, iv after 30 mins by gamma counting; assay type: ADME, organism-based, Bone element; details: in vivo, 0.5 h

Drug uptake [1]: 0.52 % ID/g
Drug uptake [2]: 11.1 % ID/g
Drug uptake [3]: 2.51 % ID/g
Drug uptake [4]: 4.13 % ID/g
Drug uptake [5]: 7.43 % ID/g
Drug uptake [6]: 1.13 % ID/g
Drug uptake [7]: 4.42 % ID/g
Drug uptake [8]: 8.36 % ID/g
Drug uptake [9]: 2.68 % ID/g
Drug uptake [10]: 2.16 % ID/g
Drug uptake [11]: 6.88 % ID/g
Stability [12]: > 98%
Drug uptake [13]: 4.47 % ID/g
Drug uptake [14]: 3.19 % ID/g
Drug uptake [15]: 1.8 % ID/g
Drug uptake [16]: 1.23 % ID/g
half-life [17]: 15 min
Drug uptake [18]: 7.79 % ID/g
Drug uptake [19]: 0.53 % ID/g
Drug uptake [20]: 1.29 % ID/g
Drug uptake [21]: 2.7 % ID/g
Drug uptake [22]: 4.79 % ID/g
Drug uptake [23]: 5.86 % ID/g
Drug metabolism [24]: Active
Drug uptake [25]: 2.03 % ID/g
Drug uptake [26]: 3.6 % ID/g
Drug uptake [27]: 2.85 % ID/g
Drug uptake [28]: 12.99 % ID/g
Drug uptake [29]: 2.68 % ID/g
Drug uptake [30]: 8.23 % ID/g
half-life [31]: 50 min
Drug uptake [32]: 6.78 % ID/g
Drug uptake [33]: 1.62 % ID/g
Drug uptake [34]: 4.84 % ID/g
Drug uptake [35]: 0.58 % ID/g
Drug uptake [36]: 4.93 % ID/g
Drug uptake [37]: 5.67 % ID/g
Drug uptake [38]: 2.27 % ID/g
Drug uptake [39]: 2.54 % ID/g
Drug uptake [40]: 1.47 % ID/g
Drug uptake [41]: 3.13 % ID/g
Drug uptake [42]: 4.67 % ID/g
Drug uptake [43]: 6.03 % ID/g
Drug uptake [44]: 0.93 % ID/g
SMILES: [18F]c1ccc(CN2CCN(c3ccc4c(c3)OCCO4)CC2)cn1
